Experimental data as given in PubChem BioAssay (NCI).
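Test compounds were applied to cells in 96-well plates for 48 hours at 5 doses. TGI is the concentration that stops growth completely.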

Tests used:
Assay in all cases: DTP human tumour cell line panel, 48 h
COLO 205 colon = test system: COLO 205 colon
NCI-H460 lung = test system: NCI-H460 lung
OVCAR-5 ovarian = test system: OVCAR-5 ovarian
RPMI-8226 leukemia = test system: RPMI-8226 leukemia
SK-MEL-28 melanoma = test system: SK-MEL-28 melanoma
SK-MEL-5 melanoma = test system: SK-MEL-5 melanoma
SK-OV-3 ovarian = test system: SK-OV-3 ovarian
SNB-75 CNS = test system: SNB-75 CNS
SW-620 colon = test system: SW-620 colon
TK-10 renal = test system: TK-10 renal

Row | Structure (SMILES) | TGI (COLO 205 colon) | TGI (NCI-H460 lung) | TGI (OVCAR-5 ovarian) | TGI (RPMI-8226 leukemia) | TGI (SK-MEL-28 melanoma) | TGI (SK-MEL-5 melanoma) | TGI (SK-OV-3 ovarian) | TGI (SNB-75 CNS) | TGI (SW-620 colon) | TGI (TK-10 renal)
1 | O=C1OC2(CCCCC2)C(Oc2ccc(Cl)cc2)=C1F | > 100 µM | > 100 µM | > 100 µM | > 100 µM | 81.5 µM | 33.3 µM | > 100 µM | > 100 µM | > 100 µM | > 100 µM
2 | CNCC(SC)c1ccc(O)c(O)c1 (centres undefined) | 32.9 µM | 33.2 µM | > 100 µM | 58.6 µM | > 100 µM | > 100 µM | > 100 µM | > 100 µM | 46.9 µM | 34 µM
3 | COc1ccc(C2C3=C(COC3=O)Oc3cc4c(cc32)OCO4)cc1OC (centres undefined) | 18.1 µM | > 100 µM | > 100 µM | > 23.5 µM | > 100 µM | > 100 µM | 18.1 µM | > 100 µM | > 100 µM | > 100 µM
4 | COC(=O)c1c(CC(=O)OC(C)C)cc2n(c1=O)Cc1c-2nc2ccccc2c1OC | > 100 µM | > 100 µM | > 100 µM | > 100 µM | > 100 µM | > 100 µM | > 100 µM | > 100 µM | > 100 µM | > 100 µM
5 | C[C@H](CCc1nc(C#N)c(N)o1)[C@H]1CC[C@H]2[C@@H]3CCC4C[C@@H](O)CC[C@]4(C)[C@H]3C[C@@H](O)[C@]12C (some centres undefined) | 31.2 µM | 31.3 µM | 35.1 µM | 6.05 µM | 26.6 µM | 29.5 µM | 28.5 µM | 25 µM | 27.4 µM | 28.6 µM
6 | C[C@]12CC[C@H]3[C@@H](CC=C4C[C@@H](O)CC[C@@]43C)[C@@H]1C/C(=C\c1ccc([N+](=O)[O-])cc1)[C@@H]2O | > 100 µM | 72.9 µM | 78.4 µM | > 100 µM | 57.6 µM | 23.2 µM | 28.1 µM | 32.1 µM | > 100 µM | 55.2 µM
7 | COC1(C)CCC(OS(C)(=O)=O)CO1 (centres undefined) | > 100 µM | > 100 µM | > 100 µM | > 100 µM | > 100 µM | > 100 µM | > 100 µM | > 100 µM | > 100 µM | > 100 µM
8 | CC(=O)N1CCOC12N=NC(C)(C)O2 (centres undefined) | > 100 µM | > 100 µM | > 100 µM | > 100 µM | > 100 µM | > 100 µM | > 100 µM | > 100 µM | > 100 µM | > 100 µM
9 | CC(C)=CCNc1ncnc2c1ncn2CCC(=O)O | > 100 µM | > 100 µM | > 100 µM | > 100 µM | > 100 µM | > 100 µM | > 100 µM | > 100 µM | > 100 µM | > 100 µM
10 | CC(Cl)(CCC(Cl)C(C)(C)Cl)C(=O)CBr (centres undefined) | 18.4 µM | 32.3 µM | 31.6 µM | 7.99 µM | 31.6 µM | 21 µM | 26.9 µM | 26.5 µM | 4.96 µM | 24.1 µM
11 | COc1ccc(/C=C/C(=O)c2cc(CN(C)C)c(O)c(CN(C)C)c2)cc1 | 32.5 µM | 49.3 µM | > 100 µM | > 100 µM | > 100 µM | 32.4 µM | – | > 100 µM | > 100 µM | > 100 µM
